Assay results published in PubChem BioAssay (NCI).
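Grown in 96-well plates, cells were treated for 48 hours with each compound at five concentrations. Insufficient inhibition: endpoint recorded as highest concentration tested. The concentration for full growth arrest is given as TGI.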 Where a SMILES comes first, the peptide text is derived from it. [ ]: non-standard residue; d: D form. Ac5c = NC1(C(=O)O)CCCC1

Legend:
Assay in all cases: growth of human tumour cells (NCI), 48 h
OVCAR-5 ovarian = test system: OVCAR-5 ovarian
DU-145 prostate = test system: DU-145 prostate
SF-539 CNS = test system: SF-539 CNS
K-562 leukemia = test system: K-562 leukemia
U251 CNS = test system: U251 CNS
OVCAR-8 ovarian = test system: OVCAR-8 ovarian
SK-MEL-2 melanoma = test system: SK-MEL-2 melanoma
SR leukemia = test system: SR leukemia
PC-3 prostate = test system: PC-3 prostate
MDA-N = test system: MDA-N
HS 578T breast = test system: HS 578T breast
SK-OV-3 ovarian = test system: SK-OV-3 ovarian
MCF7 breast = test system: MCF7 breast
SNB-75 CNS = test system: SNB-75 CNS
UACC-257 melanoma = test system: UACC-257 melanoma
UO-31 renal = test system: UO-31 renal
SF-295 CNS = test system: SF-295 CNS
RPMI-8226 leukemia = test system: RPMI-8226 leukemia
KM12 colon = test system: KM12 colon
NCI-H226 lung = test system: NCI-H226 lung
CAKI-1 renal = test system: CAKI-1 renal
T-47D breast = test system: T-47D breast
HOP-62 NSCLC = test system: HOP-62 NSCLC
COLO 205 colon = test system: COLO 205 colon
SN12C renal = test system: SN12C renal
MDA-MB-435 = test system: MDA-MB-435
SK-MEL-5 melanoma = test system: SK-MEL-5 melanoma
SF-268 CNS = test system: SF-268 CNS
A498 renal = test system: A498 renal
HT29 colon = test system: HT29 colon
NCI-H522 lung = test system: NCI-H522 lung
NCI/ADR-RES ovarian = test system: NCI/ADR-RES ovarian
M14 melanoma = test system: M14 melanoma
SNB-19 CNS = test system: SNB-19 CNS
MALME-3M melanoma = test system: MALME-3M melanoma
NCI-H460 lung = test system: NCI-H460 lung
HL-60(TB) leukemia = test system: HL-60(TB) leukemia
SK-MEL-28 melanoma = test system: SK-MEL-28 melanoma
BT-549 breast = test system: BT-549 breast
786-0 renal = test system: 786-0 renal
ACHN renal = test system: ACHN renal
HOP-92 NSCLC = test system: HOP-92 NSCLC
OVCAR-4 ovarian = test system: OVCAR-4 ovarian
TK-10 renal = test system: TK-10 renal
OVCAR-3 ovarian = test system: OVCAR-3 ovarian
HCT-116 colon = test system: HCT-116 colon
UACC-62 melanoma = test system: UACC-62 melanoma
HCT-15 colon = test system: HCT-15 colon
LOX IMVI melanoma = test system: LOX IMVI melanoma
RXF 393 renal = test system: RXF 393 renal
MDA-MB-231 breast = test system: MDA-MB-231 breast
EKVX NSCLC = test system: EKVX NSCLC
IGROV1 ovarian = test system: IGROV1 ovarian
A549 NSCLC = test system: A549 NSCLC
MOLT-4 leukemia = test system: MOLT-4 leukemia
SW-620 colon = test system: SW-620 colon
NCI-H23 lung = test system: NCI-H23 lung
HCC-2998 colon = test system: HCC-2998 colon

Question: For `O=C1Nc2ccccc2S/C1=C\c1ccc(C(F)(F)F)cc1`, which TGI (OVCAR-5 ovarian) is on record?
Answer: > 100 µM

Question: And the TGI (DU-145 prostate)?
Answer: > 100 µM

Question: And the TGI (SF-539 CNS)?
Answer: > 100 µM

Question: What about the TGI (K-562 leukemia) of the same compound?
Answer: > 100 µM

Question: What about the TGI (U251 CNS) of the same compound?
Answer: > 100 µM

Question: What about the TGI (OVCAR-8 ovarian) of the same compound?
Answer: > 100 µM

Question: What about the TGI (SK-MEL-2 melanoma) of the same compound?
Answer: > 100 µM

Question: And the TGI (SR leukemia)?
Answer: > 100 µM

Question: And the TGI (PC-3 prostate)?
Answer: > 100 µM

Question: What about the TGI (MDA-N) of the same compound?
Answer: > 100 µM

Question: What about the TGI (HS 578T breast) of the same compound?
Answer: > 100 µM

Question: What about the TGI (SK-OV-3 ovarian) of the same compound?
Answer: > 100 µM

Question: What about the TGI (MCF7 breast) of the same compound?
Answer: > 100 µM

Question: What about the TGI (SNB-75 CNS) of the same compound?
Answer: > 100 µM

Question: What about the TGI (UACC-257 melanoma) of the same compound?
Answer: > 100 µM

Question: And the TGI (UO-31 renal)?
Answer: > 100 µM

Question: And the TGI (SF-295 CNS)?
Answer: > 100 µM

Question: And the TGI (RPMI-8226 leukemia)?
Answer: > 100 µM

Question: And the TGI (KM12 colon)?
Answer: > 100 µM

Question: And the TGI (NCI-H226 lung)?
Answer: > 100 µM

Question: What about the TGI (CAKI-1 renal) of the same compound?
Answer: 93.3 µM

Question: And the TGI (T-47D breast)?
Answer: > 100 µM

Question: What about the TGI (HOP-62 NSCLC) of the same compound?
Answer: > 100 µM

Question: And the TGI (COLO 205 colon)?
Answer: > 100 µM

Question: And the TGI (SN12C renal)?
Answer: > 100 µM

Question: And the TGI (MDA-MB-435)?
Answer: > 100 µM

Question: And the TGI (SK-MEL-5 melanoma)?
Answer: > 100 µM

Question: And the TGI (SF-268 CNS)?
Answer: > 100 µM

Question: And the TGI (A498 renal)?
Answer: > 100 µM

Question: And the TGI (HT29 colon)?
Answer: > 100 µM

Question: What about the TGI (NCI-H522 lung) of the same compound?
Answer: > 100 µM

Question: What about the TGI (NCI/ADR-RES ovarian) of the same compound?
Answer: > 100 µM

Question: What about the TGI (M14 melanoma) of the same compound?
Answer: > 100 µM

Question: And the TGI (SNB-19 CNS)?
Answer: > 100 µM

Question: What about the TGI (MALME-3M melanoma) of the same compound?
Answer: > 100 µM

Question: What about the TGI (NCI-H460 lung) of the same compound?
Answer: > 100 µM

Question: And the TGI (HL-60(TB) leukemia)?
Answer: > 100 µM

Question: And the TGI (SK-MEL-28 melanoma)?
Answer: > 100 µM

Question: What about the TGI (BT-549 breast) of the same compound?
Answer: > 100 µM

Question: What about the TGI (786-0 renal) of the same compound?
Answer: > 100 µM

Question: What about the TGI (ACHN renal) of the same compound?
Answer: > 100 µM

Question: And the TGI (HOP-92 NSCLC)?
Answer: > 100 µM

Question: What about the TGI (OVCAR-4 ovarian) of the same compound?
Answer: > 100 µM

Question: What about the TGI (TK-10 renal) of the same compound?
Answer: > 100 µM

Question: What about the TGI (OVCAR-3 ovarian) of the same compound?
Answer: > 100 µM

Question: And the TGI (HCT-116 colon)?
Answer: > 100 µM

Question: What about the TGI (UACC-62 melanoma) of the same compound?
Answer: > 100 µM

Question: What about the TGI (HCT-15 colon) of the same compound?
Answer: > 100 µM

Question: What about the TGI (LOX IMVI melanoma) of the same compound?
Answer: > 100 µM

Question: What about the TGI (RXF 393 renal) of the same compound?
Answer: > 100 µM

Question: And the TGI (MDA-MB-231 breast)?
Answer: > 100 µM

Question: What about the TGI (EKVX NSCLC) of the same compound?
Answer: > 100 µM

Question: What about the TGI (IGROV1 ovarian) of the same compound?
Answer: > 100 µM

Question: And the TGI (A549 NSCLC)?
Answer: > 100 µM

Question: What about the TGI (MOLT-4 leukemia) of the same compound?
Answer: > 100 µM

Question: And the TGI (SW-620 colon)?
Answer: > 100 µM

Question: With `NCC(=O)NC1(C(=O)O)CCCC1` (H-Gly-[Ac5c]-OH) as the compound, how does the TGI (OVCAR-5 ovarian) read?
Answer: > 100 µM

Question: What about the TGI (DU-145 prostate) of the same compound?
Answer: > 100 µM

Question: And the TGI (SF-539 CNS)?
Answer: > 100 µM

Question: And the TGI (K-562 leukemia)?
Answer: > 100 µM

Question: What about the TGI (U251 CNS) of the same compound?
Answer: > 100 µM

Question: And the TGI (OVCAR-8 ovarian)?
Answer: > 100 µM

Question: And the TGI (SK-MEL-2 melanoma)?
Answer: > 100 µM

Question: And the TGI (SR leukemia)?
Answer: > 100 µM

Question: And the TGI (PC-3 prostate)?
Answer: > 100 µM

Question: What about the TGI (MDA-N) of the same compound?
Answer: > 100 µM

Question: What about the TGI (HS 578T breast) of the same compound?
Answer: > 100 µM

Question: And the TGI (SK-OV-3 ovarian)?
Answer: > 100 µM

Question: What about the TGI (MCF7 breast) of the same compound?
Answer: > 100 µM

Question: What about the TGI (SNB-75 CNS) of the same compound?
Answer: > 100 µM

Question: What about the TGI (UACC-257 melanoma) of the same compound?
Answer: > 100 µM

Question: What about the TGI (UO-31 renal) of the same compound?
Answer: > 100 µM

Question: What about the TGI (SF-295 CNS) of the same compound?
Answer: > 100 µM

Question: And the TGI (RPMI-8226 leukemia)?
Answer: > 100 µM

Question: And the TGI (KM12 colon)?
Answer: > 100 µM

Question: What about the TGI (CAKI-1 renal) of the same compound?
Answer: > 100 µM

Question: And the TGI (T-47D breast)?
Answer: > 100 µM

Question: What about the TGI (HOP-62 NSCLC) of the same compound?
Answer: > 100 µM

Question: And the TGI (COLO 205 colon)?
Answer: > 100 µM

Question: And the TGI (SN12C renal)?
Answer: > 100 µM

Question: What about the TGI (NCI-H23 lung) of the same compound?
Answer: > 100 µM

Question: And the TGI (MDA-MB-435)?
Answer: > 100 µM

Question: And the TGI (SK-MEL-5 melanoma)?
Answer: > 100 µM

Question: What about the TGI (SF-268 CNS) of the same compound?
Answer: > 100 µM

Question: And the TGI (A498 renal)?
Answer: > 100 µM

Question: And the TGI (HT29 colon)?
Answer: > 100 µM

Question: What about the TGI (NCI-H522 lung) of the same compound?
Answer: > 100 µM

Question: And the TGI (NCI/ADR-RES ovarian)?
Answer: > 100 µM

Question: And the TGI (M14 melanoma)?
Answer: > 100 µM

Question: What about the TGI (SNB-19 CNS) of the same compound?
Answer: > 100 µM

Question: And the TGI (MALME-3M melanoma)?
Answer: > 100 µM

Question: What about the TGI (NCI-H460 lung) of the same compound?
Answer: > 100 µM

Question: What about the TGI (SK-MEL-28 melanoma) of the same compound?
Answer: > 100 µM

Question: What about the TGI (BT-549 breast) of the same compound?
Answer: > 100 µM

Question: And the TGI (786-0 renal)?
Answer: > 100 µM

Question: And the TGI (ACHN renal)?
Answer: > 100 µM

Question: What about the TGI (HOP-92 NSCLC) of the same compound?
Answer: > 100 µM

Question: What about the TGI (OVCAR-4 ovarian) of the same compound?
Answer: > 100 µM

Question: What about the TGI (TK-10 renal) of the same compound?
Answer: > 100 µM

Question: And the TGI (OVCAR-3 ovarian)?
Answer: > 100 µM

Question: What about the TGI (HCT-116 colon) of the same compound?
Answer: > 100 µM

Question: And the TGI (UACC-62 melanoma)?
Answer: > 100 µM

Question: And the TGI (HCT-15 colon)?
Answer: > 100 µM

Question: What about the TGI (LOX IMVI melanoma) of the same compound?
Answer: > 100 µM

Question: What about the TGI (RXF 393 renal) of the same compound?
Answer: > 100 µM

Question: And the TGI (MDA-MB-231 breast)?
Answer: > 100 µM

Question: And the TGI (EKVX NSCLC)?
Answer: > 100 µM

Question: What about the TGI (IGROV1 ovarian) of the same compound?
Answer: > 100 µM

Question: What about the TGI (A549 NSCLC) of the same compound?
Answer: > 100 µM

Question: What about the TGI (HCC-2998 colon) of the same compound?
Answer: > 100 µM

Question: And the TGI (MOLT-4 leukemia)?
Answer: > 100 µM

Question: What about the TGI (SW-620 colon) of the same compound?
Answer: > 100 µM
